According to ChEMBL document CHEMBL1157215, “Isolation and structural modification of 7-deoxynarciclasine and 7-deoxy-trans-dihydronarciclasine” (2006):
Values after ≈ are worked out from the molar mass of the structure shown. Each block holds one molecule with its values, some of them ahead of it.

What was measured:
Type in all cases: functional
BXPC-3 = test: Growth inhibition of human BXPC3 cells
MCF7 = test: Growth inhibition of human MCF7 cells
[1] = Growth inhibition of human SF269 cells
NCI-H460 = test: Growth inhibition of human NCI-H460 cells
KM-20L2 = test: Growth inhibition of human KM20L2 cells
DU-145 = test: Growth inhibition of human DU145 cells
P388 = test: Growth inhibition of mouse P388 cells; settings: for EC50: read-out: ED50 (the source's name)

Compound: O=C1N[C@@H]2C(=C[C@H](O)[C@@H](O)[C@H]2O)c2cc3c(c(O)c21)OCO3 [NARCICLASINE]
GI (BXPC-3): 0.026 µg/mL | GI50 (MCF7): 0.019 µg/mL (≈ 0.0618 µM) | GI50 [1]: 0.021 µg/mL (≈ 0.0683 µM) | GI50 (NCI-H460): 0.032 µg/mL (≈ 0.104 µM) | GI50 (KM-20L2): 0.21 µg/mL (≈ 0.683 µM) | GI50 (DU-145): 0.011 µg/mL (≈ 0.0358 µM) | EC50 (P388): 0.002 µg/mL (≈ 0.00651 µM)

Compound: CC(=O)O[C@H]1C=C2c3cc4c(cc3C(=O)N[C@H]2[C@@H]2OC(C)(C)O[C@@H]21)OCO4
GI50 (P388): > 10 µg/mL

Compound: CC1(C)O[C@@H]2[C@H](O1)[C@@H](O[Si](C)(C)C(C)(C)C)C=C1c3cc4c(cc3C(=O)N[C@H]12)OCO4
GI50 (P388): > 10 µg/mL

Compound: CC(=O)O[C@@H]1[C@H](OC(C)=O)[C@@H](OC(C)=O)C=C2c3cc4c(cc3C(=O)N[C@H]21)OCO4 [LYCORICIDINE TRIACETATE]
GI (BXPC-3): 0.2 µg/mL | GI50 (MCF7): 0.59 µg/mL | GI50 [1]: 0.15 µg/mL | GI50 (NCI-H460): 1.2 µg/mL | GI50 (KM-20L2): 0.18 µg/mL | GI50 (DU-145): 0.48 µg/mL | EC50 (P388): 0.158 µg/mL

Compound: CC1(C)O[C@@H]2[C@H](O1)[C@@H](O)C=C1c3cc4c(cc3C(=O)N[C@H]12)OCO4
GI50 (P388): > 10 µg/mL

Compound: O=C1N[C@H]2[C@H](O)[C@H](O)[C@@H](O)[C@H](O)[C@@H]2c2cc3c(c(O)c21)OCO3 [PANCRATISTATIN]
GI (BXPC-3): 0.028 µg/mL | GI50 (MCF7): 0.032 µg/mL (≈ 0.0984 µM) | GI50 [1]: 0.017 µg/mL (≈ 0.0523 µM) | GI50 (NCI-H460): 0.048 µg/mL (≈ 0.148 µM) | GI50 (KM-20L2): 0.026 µg/mL (≈ 0.0799 µM) | GI50 (DU-145): 0.016 µg/mL (≈ 0.0492 µM) | EC50 (P388): 0.039 µg/mL (≈ 0.12 µM)

Compound: CC1(C)O[C@@H]2[C@H](O1)[C@@H](O[Si](C)(C)C(C)(C)C)C=C1c3cc4c(cc3CN[C@H]12)OCO4
GI50 (P388): > 10 µg/mL

Compound: O=C1N[C@H]2[C@H](O)[C@H](O)[C@@H](O)C[C@@H]2c2cc3c(cc21)OCO3
GI (BXPC-3): 0.036 µg/mL | GI50 (MCF7): 0.03 µg/mL (≈ 0.102 µM) | GI50 [1]: 0.03 µg/mL (≈ 0.102 µM) | GI50 (NCI-H460): 0.037 µg/mL (≈ 0.126 µM) | GI50 (KM-20L2): 0.028 µg/mL (≈ 0.0955 µM) | GI50 (DU-145): 0.025 µg/mL (≈ 0.0852 µM) | EC50 (P388): < 0.01 µg/mL

Compound: O=C1N[C@@H]2C(=C[C@H](O)[C@@H](O)[C@H]2O)c2cc3c(cc21)OCO3
GI (BXPC-3): 0.12 µg/mL | GI50 (MCF7): 0.093 µg/mL (≈ 0.319 µM) | GI50 [1]: 0.047 µg/mL (≈ 0.161 µM) | GI50 (NCI-H460): 0.11 µg/mL (≈ 0.378 µM) | GI50 (KM-20L2): 0.15 µg/mL (≈ 0.515 µM) | GI50 (DU-145): 0.062 µg/mL (≈ 0.213 µM) | EC50 (P388): < 0.01 µg/mL

Further lines, with some results ahead:

GI50 (P388): > 10 µg/mL
Compound: CC1(C)O[C@H]2[C@@H]3NC(=O)c4cc5c(cc4[C@H]3C[C@H](O)[C@H]2O1)OCO5

GI50 (P388): > 10 µg/mL
Compound: CC1(C)O[C@H]2[C@@H]3NC(=O)c4cc5c(cc4[C@H]3C[C@H](O[Si](C)(C)C(C)(C)C)[C@H]2O1)OCO5

GI50 (MCF7): > 10 µg/mL | GI50 (NCI-H460): 7.5 µg/mL (≈ 26.9 µM) | GI50 (DU-145): 4.4 µg/mL (≈ 15.8 µM) | EC50 (P388): 0.43 µg/mL (≈ 1.54 µM)
Compound: O[C@@H]1[C@H](O)[C@@H](O)C[C@@H]2c3cc4c(cc3CN[C@@H]12)OCO4
GI (BXPC-3): >10 µg/mL | GI50 [1]: > 10 µg/mL | GI50 (KM-20L2): > 10 µg/mL

GI50 (MCF7): 3.4 µg/mL | GI50 (NCI-H460): 3.4 µg/mL | GI50 (DU-145): 3.2 µg/mL | EC50 (P388): 7.1 µg/mL
Compound: Cl.O[C@@H]1[C@H](O)[C@@H](O)C=C2c3cc4c(cc3CN[C@H]21)OCO4
GI (BXPC-3): 4.4 µg/mL | GI50 [1]: 2.9 µg/mL | GI50 (KM-20L2): > 10 µg/mL

GI50 (P388): > 10 µg/mL
Compound: CC1(C)O[C@H]2[C@@H]3NCc4cc5c(cc4[C@H]3C[C@H](O[Si](C)(C)C(C)(C)C)[C@H]2O1)OCO5

GI50 (P388): > 10 µg/mL
Compound: CC1(C)O[C@@H]2[C@H](O1)[C@@H](O)C=C1c3cc4c(cc3CN[C@H]12)OCO4

GI50 (MCF7): 1.7 µg/mL | GI50 (NCI-H460): 0.78 µg/mL | GI50 (DU-145): 0.71 µg/mL | EC50 (P388): 3.3 µg/mL
Compound: Cl.O[C@@H]1[C@H](O)[C@@H](O)C[C@@H]2c3cc4c(cc3CN[C@@H]12)OCO4
GI (BXPC-3): 1.4 µg/mL | GI50 [1]: 1.6 µg/mL | GI50 (KM-20L2): 1.7 µg/mL

GI50 (MCF7): 0.24 µg/mL (≈ 0.72 µM) | GI50 (NCI-H460): 0.32 µg/mL (≈ 0.96 µM) | GI50 (DU-145): 0.26 µg/mL (≈ 0.78 µM) | EC50 (P388): < 0.01 µg/mL
Compound: CC(=O)O[C@H]1C=C2c3cc4c(cc3C(=O)N[C@H]2[C@H](O)[C@@H]1O)OCO4
GI (BXPC-3): 0.26 µg/mL | GI50 [1]: 0.19 µg/mL (≈ 0.57 µM) | GI50 (KM-20L2): 0.18 µg/mL (≈ 0.54 µM)

GI50 (P388): > 10 µg/mL
Compound: CC1(C)O[C@H]2[C@@H]3NCc4cc5c(cc4[C@H]3C[C@H](O)[C@H]2O1)OCO5

GI50 (MCF7): 0.46 µg/mL (≈ 1.1 µM) | GI50 (NCI-H460): 1.5 µg/mL (≈ 3.58 µM) | GI50 (DU-145): 0.46 µg/mL (≈ 1.1 µM) | EC50 (P388): 1.61 µg/mL (≈ 3.84 µM)
Compound: CC(=O)O[C@H]1[C@@H]2NC(=O)c3cc4c(cc3[C@H]2C[C@H](OC(C)=O)[C@H]1OC(C)=O)OCO4
GI (BXPC-3): 0.69 µg/mL | GI50 [1]: 0.3 µg/mL (≈ 0.715 µM) | GI50 (KM-20L2): 0.66 µg/mL (≈ 1.57 µM)
